Assays:
[1] = following RT; by decreasing free radical injury; cited from earlier work
[2] = tested on: C57L/J (L/J) mice; experiment: C57L/J model of radiation pneumonitis (15 Gy thoracic RT), SMA immunostaining of lung; assay type: in vivo, mouse
Experimental: (§1) In a second series of experiments, C57L/J (L/J) mice were treated with 15 Gy of thoracic radiation. L/J mice are exquisitely sensitive to even low doses of RT, and rapidly develop both pneumonitis and fibrosis. Groups of L/J mice were injected intraperitoneally with PBS, 77427 or 2A11, given as a single dose (20 nmole per mouse) at 24 hours post-RT.
It was recently observed by Zelcko Vujaskovic et al that C57L/J (L/J) mice have radiation sensitivity very similar to humans^19, making the L/J model of radiation-pneumonitis most clinically relevant. Using this L/J model, we treated mice IP with a single dose of 77427 (10 nmol per mouse) given IP at 24 hours post-RT. At 15 weeks later, we observed early evidence of pulmonary fibrosis that was abrogated by the single dose of 77427 (FIG. 3). […] Therefore, we have included a claim that GRP blockade may be a treatment to prevent, arrest, or reverse pulmonary arteriopathy leading to pulmonary hypertension, another serious and poorly understood medical condition that is now treated symptomatically.

[3] = tested on: C57L/J (L/J) mice; experiment: C57L/J model, toluidine blue staining for mast cells in lung sections; assay type: in vivo, mouse; conditions: 15 weeks post-RT, single dose 24 h post-RT
Experimental: as §1
There were no detectable subpleural or interstitial mast cells in any sham controls, nor in any lungs at 10 weeks post-RT. At 15 weeks post-RT there was a dramatic accumulation of mast cells subpleurally (black arrows) and in the alveolar interstitium (red arrows). These were most abundant in mice treated with RT+PBS (FIG. 8A), with a reduction by over 50% in mice give 77427 (FIG. 8B). Total numbers of subpleural mast cells have been quantified for all of the lung tissue on each slide and will be normalized for the length of pleura present.

[4] = tested on: C57BL/6 mice; experiment: Radiation fibrosis model in C57BL/6 mice (15 Gy thoracic RT), SMA immunostaining of lung; assay type: in vivo, mouse; conditions: C57BL/6 lungs 20 wks post-15 Gy; 77427 IP twice weekly for 20 weeks; vs RT+PBS
Text: Our first investigation tested the hypothesis that GRP contributes to RTP using an established mouse model of radiation fibrosis in C57BL/6 mice, which are prone to fibrosis. Following exposure to high-dose thoracic radiation (15 Gy), we treated mice intraperitoneally (IP) with either PBS or GRP blockade by using small molecule 77427. We quantified results of immunohistochemistry by using quantitative image analysis with ImageJ to determine whether GRP contributes to RT-induced inflammatory responses and/or fibrosis, specifically including assessment of active TGFβsignaling^7. As noted above, the first investigation (FIGS. 1 and 2) tested the hypothesis that GRP contributes to RTP using an established mouse model of radiation fibrosis in C57BL/6 mice. Following exposure to high-dose thoracic radiation (15 Gy), we treated mice intraperitoneally (IP) with either PBS or GRP blockade by using small molecule 77427. We quantified results of immunohistochemistry by using quantitative image analysis with ImageJ to determine whether GRP contributes to RT-induced inflammatory responses and/or fibrosis, specifically including assessment of active TGFβ signaling^7. In FIG. 1B, note that there is extensive immunostaining for myofibroblasts in the alveolar walls (arrows) in mice exposed to RT 20 weeks earlier and given only PBS. […]

[5] = tested on: C57L/J (L/J) mice; experiment: C57L/J model, Masson's trichrome staining for collagen in alveoli; assay type: in vivo, mouse
Experimental: as §1
In normal, Sham-irradiated lung (FIG. 5A), there are only traces of green collagen staining in the alveolar walls (arrows). In contrast, 15 weeks post-RT, early collagen deposition is widespread throughout the alveolar walls.
We quantified the area of green trichrome staining in the trichrome-stained slides (including those shown in FIG. 5), using ImageJ, normalized for the total area of alveolar tissue in the same photomicrograph, similar to the analysis used for FIG. 4.

[6] = tested on: C57L/J (L/J) mice; experiment: C57L/J model, hydroxyproline assay on whole mouse lungs (total lung collagen); assay type: in vivo; conditions: 15 weeks post-RT, single dose, initial assay results
Experimental: as §1
As a second measure of pulmonary collagen levels, we carried out the hydroxyproline assay on whole mouse lungs from the same groups of mice as given in the legend to FIG. 3. There is a trend toward increased collagen at 15 weeks post-RT, which is confounded to some extent by the presence of collagen in connective tissue of blood vessels and airways in normal lung. Additional samples are being assayed in the near future.

SMILES	severity of RTP [1]	SMA+ myofibroblasts in small distal blood vessels ([2]; C57L/J lung 15 wks post-15 Gy, single dose IP 24 h post-RT)	early evidence of pulmonary fibrosis (SMA+ cells) ([2]; C57L/J, 15 weeks post-RT, single dose 10 nmol per mouse IP at 24 hours post-RT)	reduction of mast cells (subpleural and alveolar interstitium) versus RT+PBS [3]	subpleural mast cells (toluidine blue staining) [3]	interstitial SMA staining (myofibroblasts in alveolar walls), early indicator of radiation fibrosis [4]	trichrome (collagen) levels in the alveoli ([5]; C57L/J lung 15 weeks post-15 Gy, single dose 24 h post-RT)	alveolar collagen deposition (quantified trichrome area normalized for alveolar tissue area) ([5]; C57L/J, 15 weeks post-high dose RT, RT+PBS vs RT+77427 P<0.001)	hydroxyproline content of whole lung (total lung collagen) [6]
CCN1C=CC=C/C1=C1/C2=NC(=C(c3cccc[n+]3CC)C3=NC(=C(c4cccc[n+]4CC)c4ccc([n-]4)C(c4cccc[n+]4CC)=C4C=CC1=N4)C=C3)C=C2.[Cl-].[Cl-].[Cl-].[Cl-].[Cl-].[Mn+3] [AEOL10113]	can reduce the severity of RTP	–	–	–	–	–	–	–	–
Nc1nc(Cl)cc(NCCO)n1 [compound 77427]	–	greatly reduces SMA+ myofibroblasts in small distal blood vessels	abrogated	over 50%	reduced	abrogates this interstitial SMA staining	reduced trichrome levels in the alveoli to near baseline levels	abrogates alveolar collagen deposition	do not have elevated hydroxyproline content
